# Measured values published in patent US20150025131A1 (priority 2013, published 2015).
# Test system: knee joints of arthritic rats
# Assay: Adjuvant induced arthritis model, histopathology of knee joints (H & E)
# Type: in vivo, Sprague Dawley rats
# Conditions: H & E staining
# Description: All studies were carried out using Female Sprague Dawley (SD) rats weighing 150-250 gms. Animals were kept at 21±2° C. and on a 12-h light/dark cycle, received standardized pelleted diet and tap water. Experiments were performed under the ethical guidelines of the International Association for the study of pain in conscious animals. Each group contains 12 animals with randomly distributed weights into each treatment group.
# Arthritis was induced by injecting freshly prepared 100 μL of 1 mg suspension of lyophilized Mycobacterium tuberculosis H37Ra (MT H37Ra; DIFCO Laboratories, Detroit, Mich., USA), subcutaneously at the rat tail base using sterile hypodermic needle. Inoculation was carried out under anesthesia with a combination of 20 mg/kg ketamine and 5 mg/kg xylazine, injected intraperitoneally. Compound and the reference drug were administered daily, intraperitoneally using sterile syringes. The positive control received vehicle (5% DMSO+PBS) or saline only; treatment groups received test compounds (25 mg/kg), whereas reference group received indomethacin (5 mg/kg). The doses of the test compounds were selected after preliminary dose finding studies. The treatment was started on the same day after vaccination.
# The animals were sacrificed at the end of the experiment and samples were taken from the knee joints. Sample fixation were done using 10% formalin following decalcification. The samples were then processed, embedded, cut, mounted and stained with hematoxylin and eosin (H & E) dye for microscopic evaluation.
compound,measurement,setting,value
"COc1c(O)cc2oc(-c3ccc(O)c(O)c3)c(O)c(=O)c2c1O [Patuletin, 3,5,7,3′,4′-pentahydroxy-6-methoxy flavones]",histopathology of knee joints (in words) versus arthritic control rats,,less infiltration of lymphocytes and minimal bone destruction
same,histopathology score of knee joints,"normal control score 0, arthritic control score 4",2
